According to patent US8895032B2, “Dendritic nano-antioxidants” (Central Michigan University, priority 2009, dated 2014):
Values joined by “and” are separate entries in the source; they are usually repeats but may differ in a detail not shown here. Equal entries are not always repeated. Where two headings read alike, the source gives them in different places.

Key:
plasmid DNA pBR 322 = assay: Protection of plasmid DNA from AAPH damage (agarose electrophoresis); type: biochemical; settings: 10 mM AAPH, 37° C., 4 h
DPPH radical assay = settings: for time to reach plateau / steady state with DPPH•: 50 μM syringaldehyde, 12.5 μM Trolox and ascorbic acid, methanol, room temperature, 515 nm; for IC50: read-out: DPPH IC50 at 120 min, Example 15
[1] = beta-carotene-linoleate assay; type: biochemical; settings: 50° C., 180 min, 470 nm
Text: The ability of the dendritic antioxidants 1, 2, and 3 to protect linoleic acid against free radical damage was examined by the beta-carotene-linoleate model (Jayaprakasha, G. K., et al. Food Chem. 2001, 73, 285, incorporated herein by reference in its entirety). In the absence of an antioxidant, hydroperoxides formed from linoleic acid oxidation bleach the highly unsaturated beta-carotene by a free-radical-mediated phenomenon. The bleaching of the reddish-orange color of beta-carotene was monitored at 470 nm in the presence of various concentrations of antioxidant. The % absorbance (corrected for control without antioxidant) was determined at each antioxidant concentration after incubation at 50° C. for 180 min. The % A470 nm values were determined as follows: % A470 nm=[(At(180 min)/At(0 min))×100]−[(Ac(180 min)/Ac(0 min))×100], wherein At(180 min)=absorbance at 470 nm of antioxidant sample incubated at 50° C. for 180 min, At(0 min)=absorbance at 470 nm of antioxidant sample incubated at 50° C. for 0 min, Ac(180 min)=absorbance at 470 nm of control sample (without antioxidant) incubated at 50° C. for 180 min, and Ac(0 min)=absorbance at 470 nm of control sample (without antioxidant) incubated at 50° C. for 0 min. […] In FIG. 24, protection of linoleic acid from oxidation by various antioxidants is shown for compound 1 (□), compounds 2 and 3 (•), quercetin (x), and Trolox (Δ).

Row | SMILES | DNA protection (plasmid DNA pBR 322; 5 μM antioxidant) | DNA protection (S band intensity) (plasmid DNA pBR 322; 11-45 μM antioxidant) | DNA protection (plasmid DNA pBR 322; below 5 μM antioxidant) | # of DDPH• reduced per antioxidant molecule (1/stoichiometry) (DPPH radical assay) | Antioxidant Capacity Relative to Trolox, DPPH (DPPH radical assay) | DPPH• remaining at plateau (DPPH radical assay; 5 μM compound 1) [%] | DPPH• remaining in two minutes (DPPH radical assay; 5 μM compound 1) [%] | decrease in DDPH• (DPPH radical assay; 5 μM solution) [%] | time to reach plateau / steady state with DPPH• (DPPH radical assay; 5 μM compound 1) | Antioxidant Capacity Relative to Trolox, DPPH (DPPH radical assay; listed as compound 1) | DPPH antioxidant capacity, times better than ascorbic acid (DPPH radical assay; listed as compound 1) | IC50 (DPPH radical assay) [µM] | protection of linoleic acid from oxidation [1] | DNA protection at all concentrations used (plasmid DNA pBR 322; 0.35-45 μM)
1 | COc1cc(CN(Cc2ccc(CN(Cc3cc(OC)c(O)c(OC)c3)Cc3cc(OC)c(O)c(OC)c3)cc2)Cc2cc(OC)c(O)c(OC)c2)cc(OC)c1O [Compound 1] | Some protection | well protected | No protection | 8.8 | 4.9 | 46 | 60 | 60 | approximately 45 min | ~5 and 4.9 | ~5 times and 4.9 times | 4 | most effective | –
2 | Cc1c(C)c2c(c(C)c1O)CCC(C)(C(=O)O)O2 (stereo not shown) [Trolox, 6-hydroxy-2,5,7,8-tetramethylchroman-2-carboxylic acid] | – | – | – | 1.8 | 1 | – | – | – | ≤ 2 min | – | – | 30 | more effective than compounds 2 and 3 (and quercetin) at lower concentrations | ineffective
